Source: patent US7538099B1, “Antiprogestin method and kit for reducing side effects associated with low dosage HRT, oral contraception and regulating menses” (Eastern Virginia Medical School, priority 1992, dated 2009)
Read-outs that look alike come from different tables or passages of the source. One block for each compound: values may come before it.

Legend:
[1] = test system: ovariectomized cynomolgus monkeys; experiment: Example II: vaginal bleeding in ovariectomized monkeys on estradiol and estradiol plus progesterone replacement, intermittent onapristone; type: in vivo, Macaca fascicularis
Description: (§1) Twenty previously ovariectomized cynomolgus monkeys (Macaca fascicularis) have implanted for 281 days a single estradiol-containing subcutaneous capsule. Estradiol release from this capsule results in serum estradiol concentrations of approximately 75 pg/ml. A subcutaneous progesterone capsule is implanted on day 191 and remains in place until day 281. Progesterone release from this capsule results in serum progesterone concentrations of approximately 4 ng/ml. The study takes place in the animal research facilities of the Eastern Virginia Medical School as described in Example I.
The purpose of this study was to evaluate break-through bleeding prior to and after onapristone treatment in ovariectomized monkeys receiving estrogen and estrogen plus progesterone replacement therapy. The twenty monkeys were assigned to the following four groups: Group I receives onapristone vehicle (saline) on days 30, 60, 90, 120, 150, 180, 210, 240, 270. Group 2 receives 3 mg/kg i.m. onapristone on days 30, 60, 90, 120, 150, 180, 210, 240, 270. Group 3 is treated with 10 mg/kg i.m. onapristone on the same days. Group 4 receives 30 mg/kg i.m. onapristone on the same days. Vaginal swabs are performed daily from day 1 to 281. The primary parameter for evaluation in this study is the occurrence of vaginal bleeding.

[2] = test system: ovariectomized cynomolgus monkeys; experiment: Example III: vaginal bleeding in ovariectomized monkeys on estradiol and low-dose progesterone implants, onapristone 40 mg/kg im; type: in vivo; settings: for incidence of breakthrough bleeding: 40 mg/kg im, estradiol and low-dose progesterone replacement
Description: (§2) Twenty ovariectomized cynomolgus monkeys were implanted subcutaneously with an estradiol-containing silastic capsule (3 cm length).
The study was undertaken in two phases.
(§3) All monkeys have reached at least day 272. The estradiol implant will remain in place to day 301. […] A smaller progesterone implant (0.5 cm) will be in place from day 210 to 294. This implant is intended to produce a serum progesterone concentration of approximately 0.7 ng/ml. The two experimental groups (M=10/group) were as follows: • Group 1 Onapristone vehicle (saline) on days 180, 197, 240, and 270 • Group 2 Onapristone […] (40 mg/kg, im) on days 180, 197, 240, and 270

[3] = test system: ovulation (serum estradiol and progesterone); experiment: Example I Part II: weekly serum progesterone and estradiol (breakthrough ovulation, endogenous estrogen biosynthesis); type: in vivo, Macaca mulatta; settings: continuous ultra low dose regimen plus intermittent RU 486; almost unvarying
Excerpt: In Part II, 30 of these primates were randomly assigned to five treatment groups of six each: (1) the oral contraceptive medication employed in Part I was continued (21+7 day regimen) for 6 months; (2) continuous (no “pill-free” interval) daily estrogen-progestin medication, with combined single day oral administration of an antiprogestin (RU 486) on treatment days 30, 60, 90, 120, 150, and 180; (3) same as group 2, except that the progesterone antagonist was given only on days 60, 120, and 180; (4) same as group 2, except that RU 486 was given only on days 90 and 180; and (5) 180 days of continuous estrogen-progestin daily therapy, but without any antiprogestin treatment. Daily monitoring to detect vaginal blood, as in Part I above, was discontinued at 187 days. Femoral blood was collected once weekly throughout in order to identify potential breakthrough ovulation via progesterone elevations; serum values above 1.0 ng/ml were considered indicative of ovarian luteal function and possible ovulation. Likewise, these same specimens were analyzed for estradiol levels in order to monitor ongoing endogenous estrogen biosynthesis. Two monkeys, in groups 1 and 3, respectively, were dropped from the ongoing protocol, one due to a skin rash and the other because of a thumb infection requiring topical treatment. Neither incident is believed to be related to the hormonal treatments.

[4] = test system: adult female rhesus monkeys; experiment: Example I Part II: daily vaginal swabs for bleeding, ultra low dose oral contraception with or without intermittent RU 486, 180 days; type: in vivo, Macaca mulatta
Excerpt: In Part II, 30 of these primates were randomly assigned to five treatment groups of six each: (1) the oral contraceptive medication employed in Part I was continued (21+7 day regimen) for 6 months; (2) continuous (no “pill-free” interval) daily estrogen-progestin medication, with combined single day oral administration of an antiprogestin (RU 486) on treatment days 30, 60, 90, 120, 150, and 180; (3) same as group 2, except that the progesterone antagonist was given only on days 60, 120, and 180; (4) same as group 2, except that RU 486 was given only on days 90 and 180; and (5) 180 days of continuous estrogen-progestin daily therapy, but without any antiprogestin treatment. Daily monitoring to detect vaginal blood, as in Part I above, was discontinued at 187 days. Femoral blood was collected once weekly throughout in order to identify potential breakthrough ovulation via progesterone elevations; serum values above 1.0 ng/ml were considered indicative of ovarian luteal function and possible ovulation. Likewise, these same specimens were analyzed for estradiol levels in order to monitor ongoing endogenous estrogen biosynthesis. […]
Data derived from Part II of the study was listed by treatment group with the profiles of endometrial bleeding through six treatment cycles to 180 days. Mean (+SEM) number of days for breakthrough bleeding or menses was calculated by dividing the total number of incidents recorded (per treatment cycle in the case of group 1 or 30 days intervals for groups 2 to 5) by the number of individuals observed in the group. In the tabulation of data, menses (withdrawal or induced bleeding at expected intervals) was scored for vaginal blood detected within the “pill free” interval for group 1 or within seven days after the intermittent administration of RU 486 during continuous ultra low dose oral contraception (groups 2 to 4). Similarly, failure to observe vaginal bleeding during these times of expected menses, either withdrawal of the oral contraceptive medication or soon after giving the progesterone antagonist, was scored as withdrawal amenorrhea.

[5] = Example II: serum hormone concentrations from subcutaneous capsules; type: in vivo, Macaca fascicularis
Description: as §1

[6] = parameters: species or system cynomolgus monkeys; settings: female, cynomolgus monkey, in vivo, sc
Description: as §2, §3

SMILES: CN(C)c1ccc([C@H]2C[C@]3(C)[C@@H](CC[C@]3(O)CCCO)[C@@H]3CCC4=CC(=O)CCC4=C32)cc1 [Onapristone]
incidence of breakthrough bleeding ([1]; Groups 2-4: 3, 10, 30 mg/kg i.m. every 30 days, estradiol capsule): lowers the incidence of breakthrough bleeding
induction of bleeding by onapristone during estradiol treatment ([1]; Groups 2-4: 3, 10, 30 mg/kg i.m. every 30 days, estradiol capsule only): does not induce bleeding
induction of vaginal bleeding during combined estradiol and progestin treatment ([1]; after progesterone capsule implanted (day 191)): induces vaginal bleeding
incidence of breakthrough bleeding [2]: reduced the incidence of BTBs
incidence of breakthrough bleeding ([2]; listed as onapristone): reduced the incidence of breakthrough bleeding
days of bleeding that followed the day 197 onapristone treatment ([2]; Group 2, 40 mg/kg): Twelve of the twenty days
monkeys in which bleeding followed the day 197 treatment ([2]; Group 2, 40 mg/kg): four of the ten monkeys
monkeys in which bleeding occurred ([2]; Group 2, 40 mg/kg): seven of the ten monkeys
days of unscheduled vaginal bleeding (breakthrough bleeding) ([2]; Group 2, 40 mg/kg im, controls 33 days): 2 days
days of bleeding that followed the day 240 onapristone treatment ([2]; Group 2, 40 mg/kg, in one monkey): Six of the twenty days
days of vaginal bleeding ([2]; Group 2, 40 mg/kg, out of 800 days of observation): 20 days
withdrawal-bleeding ([2]; monkeys substituted with E2 and low-dose progesterone): induced withdrawal-bleeding

SMILES: CC#C[C@]1(O)CC[C@H]2[C@@H]3CCC4=CC(=O)CCC4=C3[C@@H](c3ccc(N(C)C)cc3)C[C@@]21C [RU 486]
serum estradiol levels [3]: ~25 pg/mL
duration of menses after RU 486 ([4]; RU 486 50 mg intermittently during continuous ultra low dose oral contraception, P<0.05 versus interrupted pill cycle alone): 3.1 ± 0.8 days
time to induced bleeding after RU 486, all instances ([4]; administered at 30, 60 or 90 day intervals): ≤ 72 h
reduction of overall breakthrough bleeding incidence ([4]; single 50 mg oral RU 486 doses at 30, 60 or 90 day intervals during continuous ultra low dose oral contraception, groups 2 to 4 combined versus group 1, P<0.05): 57%

rate of breakthrough bleeding with progressing duration of estradiol treatment ([1]; Group 1, estradiol capsule, onapristone vehicle): increasing rate of breakthrough bleeding
serum estradiol concentrations ([5]; single estradiol-containing subcutaneous capsule): approximately 75 pg/ml
serum estradiol concentrations [6]: approximately 75 pg/ml
breakthrough bleedings (BTBs) with E2 alone ([2]; ovariectomized monkeys substituted with E2 alone): do not exhibit breakthrough bleedings
SMILES: C[C@]12CC[C@@H]3c4ccc(O)cc4CC[C@H]3[C@@H]1CC[C@@H]2O [estradiol]

serum progesterone concentrations ([5]; subcutaneous progesterone capsule, day 191 to 281): approximately 4 ng/ml
BTBs after addition of low-dose progesterone ([2]; on estradiol implant): increase in BTBs
SMILES: CC(=O)[C@H]1CC[C@H]2[C@@H]3CCC4=CC(=O)CC[C@]4(C)[C@H]3CC[C@]12C [progesterone]
